This assay deals with T1, human TLR7 (Homo sapiens, UniProt Q9NYK1).
T1 construct: expressed in transfected cells; host or cells: HEK293 cell line stably expressing the pNiFty2-SEAP reporter plasmid; TLR7 in pUNO vector, blasticidin selection
T1 sequence (Q9NYK1 27-1049): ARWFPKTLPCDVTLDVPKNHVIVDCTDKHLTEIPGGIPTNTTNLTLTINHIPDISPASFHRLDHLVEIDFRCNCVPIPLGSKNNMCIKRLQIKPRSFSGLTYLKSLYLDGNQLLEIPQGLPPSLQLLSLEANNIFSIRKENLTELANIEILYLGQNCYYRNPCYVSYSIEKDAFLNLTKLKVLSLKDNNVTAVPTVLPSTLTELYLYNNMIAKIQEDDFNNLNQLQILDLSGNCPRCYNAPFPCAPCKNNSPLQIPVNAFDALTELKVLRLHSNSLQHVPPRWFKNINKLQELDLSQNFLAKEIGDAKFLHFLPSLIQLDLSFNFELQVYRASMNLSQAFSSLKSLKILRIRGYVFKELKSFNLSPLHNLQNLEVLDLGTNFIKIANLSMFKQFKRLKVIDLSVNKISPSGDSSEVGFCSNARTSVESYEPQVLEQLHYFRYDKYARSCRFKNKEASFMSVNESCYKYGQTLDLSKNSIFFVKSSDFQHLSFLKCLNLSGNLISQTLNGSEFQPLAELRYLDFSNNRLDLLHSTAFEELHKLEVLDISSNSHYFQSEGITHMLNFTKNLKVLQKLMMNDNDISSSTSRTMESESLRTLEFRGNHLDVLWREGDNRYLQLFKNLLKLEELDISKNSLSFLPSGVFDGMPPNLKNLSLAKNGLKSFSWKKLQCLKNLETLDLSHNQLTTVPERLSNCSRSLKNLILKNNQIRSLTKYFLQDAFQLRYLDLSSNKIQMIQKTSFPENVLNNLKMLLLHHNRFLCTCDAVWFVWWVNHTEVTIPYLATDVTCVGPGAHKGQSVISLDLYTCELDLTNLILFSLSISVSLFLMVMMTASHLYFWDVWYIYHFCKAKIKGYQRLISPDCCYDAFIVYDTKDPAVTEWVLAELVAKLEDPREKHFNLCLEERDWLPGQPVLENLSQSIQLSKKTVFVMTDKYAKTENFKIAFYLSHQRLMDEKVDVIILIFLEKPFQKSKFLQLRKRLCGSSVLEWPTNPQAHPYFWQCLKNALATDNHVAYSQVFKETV
The assay can be described thus: Human TLR7 assay (SEAP reporter in HEK293 cells). In kind it is cell-based. The conditions noted are these: SEAP induction in HEK293 cells expressing human TLR7, overnight incubation at 37° C., 0.1% DMSO.
For `CCCCc1nc2c(N)nc3ccccc3c2n1CCCN(Cc1cccc(CC(=O)OC)c1)C(=O)CN1CCC(C(=O)N(C)C)CC1` [Example 52, Methyl 2-(3-((N-(3-(4-amino-2-butyl-1H-imidazo[4,5-c]quinolin-1-yl)propyl)-2-(4-(dimethylcarbamoyl)piperidin-1-yl)acetamido)methyl)phenyl)acetate], it took 631 nM to reach a half-maximal effect (EC50).

In the case of `CCCCc1nc2c(N)nc3ccccc3c2n1CCCN(Cc1cccc(CC(=O)OC)c1)C(=O)CN1CCOCC1` [Example 53, Methyl 2-(3-((N-(3-(4-amino-2-butyl-1H-imidazo[4,5-c]quinolin-1-yl)propyl)-2-morpholinoacetamido)methyl)phenyl)acetate], a half-maximal effect (EC50) was put at 794 nM.

Turning to `CCCCc1nc2c(N)nc3ccccc3c2n1CCCN(Cc1cccc(CC(=O)OC)c1)C(=O)CN1C[C@@H](C)O[C@@H](C)C1` [Example 54, Methyl 2-(3-((N-(3-(4-amino-2-butyl-1H-imidazo[4,5-c]quinolin-1-yl)propyl)-2-((2S,6R)-2,6-dimethylmorpholino)acetamido)methyl)phenyl)acetate], the midpoint of the response, the EC50, lay at 1000 nM.

As to `CCCCc1nc2c(N)nc3ccccc3c2n1CCCN(Cc1cccc(CC(=O)OC)c1)C(=O)CN1CCN(C)CC1` [Example 55, Methyl 2-(3-((N-(3-(4-amino-2-butyl-1H-imidazo[4,5-c]quinolin-1-yl)propyl)-2-(4-methylpiperazin-1-yl)acetamido)methyl)phenyl)acetate], a half-maximal response (EC50) required 79.4 nM.

For the molecule `CCCCc1nc2c(N)nc3ccccc3c2n1CCCN(Cc1cccc(CC(=O)OC)c1)C(=O)CN1CCN(CCO)CC1` [Example 56, Methyl 2-(3-((N-(3-(4-amino-2-butyl-1H-imidazo[4,5-c]quinolin-1-yl)propyl)-2-(4-(2-hydroxyethyl)piperazin-1-yl)acetamido)methyl)phenyl)acetate], the EC50 – broadly, the concentration that produces a half-maximal response – is 501 nM.

The molecule `CCCCc1nc2c(N)nc3ccccc3c2n1CCCN(Cc1cccc(CC(=O)OC)c1)C(=O)CN1CCN(CCOC)CC1` [Example 57, Methyl 2-(3-((N-(3-(4-amino-2-butyl-1H-imidazo[4,5-c]quinolin-1-yl)propyl)-2-(4-(2-methoxyethyl)piperazin-1-yl)acetamido)methyl)phenyl)acetate] showed an EC50 of 50.1 nM.

For `CCCCc1nc2c(N)nc3ccccc3c2n1CCCN(Cc1cccc(CC(=O)OC)c1)C(=O)CN1CCN(C(C)=O)CC1` [Example 58, Methyl 2-(3-((2-(4-acetylpiperazin-1-yl)-N-(3-(4-amino-2-butyl-1H-imidazo[4,5-c]quinolin-1-yl)propyl)acetamido)methyl)phenyl)acetate], the EC50 is 1260 nM.

The molecule `CCCCc1nc2c(N)nc3ccccc3c2n1CCCN(Cc1cccc(CC(=O)OC)c1)C(=O)CN1CCN(S(C)(=O)=O)CC1` [Example 59, Methyl 2-(3-((N-(3-(4-amino-2-butyl-1H-imidazo[4,5-c]quinolin-1-yl)propyl)-2-(4-(methylsulfonyl)piperazin-1-yl)acetamido)methyl)phenyl)acetate] showed an EC50 of 794 nM.

`CCCCc1nc2c(N)nc3ccccc3c2n1CCCN(Cc1cccc(CC(=O)OC)c1)C(=O)CN1CCCCCC1` [Example 60, Methyl 2-(3-((N-(3-(4-amino-2-butyl-1H-imidazo[4,5-c]quinolin-1-yl)propyl)-2-(azepan-1-yl)acetamido)methyl)phenyl)acetate]: a half-maximal effect (EC50) was put at 79.4 nM.

For the molecule `CCCCc1nc2c(N)nc3ccccc3c2n1CCCN(Cc1cccc(CC(=O)OC)c1)C(=O)CN1CCCOCC1` [Example 61, Methyl 2-(3-((N-(3-(4-amino-2-butyl-1H-imidazo[4,5-c]quinolin-1-yl)propyl)-2-(1,4-oxazepan-4-yl)acetamido)methyl)phenyl)acetate], the response was half-maximal at 398 nM (EC50).

Turning to `CCCCc1nc2c(N)nc3ccccc3c2n1CCCN(Cc1cccc(CC(=O)OC)c1)C(=O)CN1CCCN(C)CC1` [Example 62, Methyl 2-(3-((N-(3-(4-amino-2-butyl-1H-imidazo[4,5-c]quinolin-1-yl)propyl)-2-(4-methyl-1,4-diazepan-1-yl)acetamido)methyl)phenyl)acetate], the EC50 was 251 nM.

Take `CCCCc1nc2c(N)nc3ccccc3c2n1CCCN(Cc1cccc(CC(=O)OC)c1)C(=O)CN1CCCN(C(C)=O)CC1` [Example 63, Methyl 2-(3-((2-(4-acetyl-1,4-diazepan-1-yl)-N-(3-(4-amino-2-butyl-1H-imidazo[4,5-c]quinolin-1-yl)propyl)acetamido)methyl)phenyl)acetate]: the midpoint of the response, the EC50, lay at 501 nM.

Turning to `CCCCc1nc2c(N)nc3ccccc3c2n1CCCN(Cc1cccc(CC(=O)OC)c1)C(=O)CN1CCCN(C(=O)NCC)CC1` [Example 64, Methyl 2-(3-((N-(3-(4-amino-2-butyl-1H-imidazo[4,5-c]quinolin-1-yl)propyl)-2-(4-(ethylcarbamoyl)-1,4-diazepan-1-yl)acetamido)methyl)phenyl)acetate], the EC50 was 1260 nM.

Consider `CCCCc1nc2c(N)nc3ccccc3c2n1CCCN(Cc1cccc(CC(=O)OC)c1)C(=O)CN1CCCN(S(C)(=O)=O)CC1` [Example 65, Methyl 2-(3-((N-(3-(4-amino-2-butyl-1H-imidazo[4,5-c]quinolin-1-yl)propyl)-2-(4-(methylsulfonyl)-1,4-diazepan-1-yl)acetamido)methyl)phenyl)acetate], for which the midpoint of the response, the EC50, lay at 631 nM.

Molecule `CCCCc1nc2c(N)nc3ccccc3c2n1CCCN(Cc1ccc(CC(=O)OC)cc1)C(=O)CN1CCN(CCOC)CC1` [Example 66, Methyl 2-(4-((N-(3-(4-amino-2-butyl-1H-imidazo[4,5-c]quinolin-1-yl)propyl)-2-(4-(2-methoxyethyl)piperazin-1-yl)acetamido)methyl)phenyl)acetate] showed an EC50 of 158 nM.

With `CCCCc1nc2c(N)nc3ccccc3c2n1CCCN(Cc1ccc(CC(=O)OC)cc1)C(=O)CN1CCCN(C(C)=O)CC1` [Example 67, Methyl 2-(4-((2-(4-acetyl-1,4-diazepan-1-yl)-N-(3-(4-amino-2-butyl-1H-imidazo[4,5-c]quinolin-1-yl)propyl)acetamido)methyl)phenyl)acetate], the EC50 is 501 nM.

`CCCCc1nc2c(N)nc3ccccc3c2n1CCCN(Cc1ccc(CC(=O)OC)cc1)C(=O)CN1CCCN(S(C)(=O)=O)CC1` [Example 68, Methyl 2-(4-((N-(3-(4-amino-2-butyl-1H-imidazo[4,5-c]quinolin-1-yl)propyl)-2-(4-(methylsulfonyl)-1,4-diazepan-1-yl)acetamido)methyl)phenyl)acetate] gave an EC50 of 501 nM.

`CCCCc1nc2c(N)nc3ccccc3c2n1CCCN(Cc1ccc(CC(=O)OC)cc1)C(=O)CN(C)C1CCN(C(C)=O)CC1` [Example 69, Methyl 2-(4-((2-((1-acetylpiperidin-4-yl)(methyl)amino)-N-(3-(4-amino-2-butyl-1H-imidazo[4,5-c]quinolin-1-yl)propyl)acetamido)methyl)phenyl)acetate] showed an EC50 of 398 nM.

On to `COCCc1nc2c(N)nc3ccccc3c2n1CCCN(Cc1ccc(CC(=O)OC)cc1)C(=O)CN1CCN(C)CC1` [Example 70, Methyl 2-(4-((N-(3-(4-amino-2-(2-methoxyethyl)-1H-imidazo[4,5-c]quinolin-1-yl)propyl)-2-(4-methylpiperazin-1-yl)acetamido)methyl)phenyl)acetate], for which the EC50 is 398 nM.

As to `COCCc1nc2c(N)nc3ccccc3c2n1CCCN(Cc1ccc(CC(=O)OC)cc1)C(=O)CN1CCN(CCOC)CC1` [Example 71, Methyl 2-(4-((N-(3-(4-amino-2-(2-methoxyethyl)-1H-imidazo[4,5-c]quinolin-1-yl)propyl)-2-(4-(2-methoxyethyl)piperazin-1-yl)acetamido)methyl)phenyl)acetate], the EC50 is 200 nM.

As to `COCCc1nc2c(N)nc3ccccc3c2n1CCCN(Cc1cccc(CC(=O)OC)c1)C(=O)CN1CCN(C)CC1` [Example 72, Methyl 2-(3-((N-(3-(4-amino-2-(2-methoxyethyl)-1H-imidazo[4,5-c]quinolin-1-yl)propyl)-2-(4-methylpiperazin-1-yl)acetamido)methyl)phenyl)acetate], the concentration giving a half-maximal response (EC50) was 501 nM.

In turn, `COCCc1nc2c(N)nc3ccccc3c2n1CCCN(Cc1cccc(CC(=O)OC)c1)C(=O)CN1CCN(CCOC)CC1` [Example 73, Methyl 2-(3-((N-(3-(4-amino-2-(2-methoxyethyl)-1H-imidazo[4,5-c]quinolin-1-yl)propyl)-2-(4-(2-methoxyethyl)piperazin-1-yl)acetamido)methyl)phenyl)acetate] showed an EC50 of 501 nM.
